Source: patent US7226766B2, “S-methylcysteine, S-ethylcysteine, and related S-alkylthiols as antagonists to the effects of S-nitrosothiols and nitric oxide” (University of Iowa Research Foundation, priority 2001, dated 2007)

What was measured:
[1] = test system: Sprague-Dawley rats treated with lipopolysaccharide (septic shock model); assay: experimental model of septic shock: lipopolysaccharide-treated conscious rats, hemodynamic measurements and deaths; type: in vivo, rat; conditions: for number of treated rats that died: lipopolysaccharide-treated rats, 22 rats received L-NAME, 12 rats S-methyl cysteine; for mean arterial pressure after treatment: rats 72 hours after lipopolysaccharide 0.5 mg/kg i.p., L-NAME 25 μmole/kg or S-methyl-L-cysteine 200 nmol/kg infusion for 10 minutes + 500 nmol/kg bolus; for total peripheral resistance after treatment (in words): L-NAME 25 μmole/kg or S-methyl-L-cysteine 200 nmol/kg infusion + 500 nmol/kg bolus
Experimental: Male 16 week old Sprague-Dawley rats were anesthetized for surgical placement of intraaortic pressure tranducers and Dopplar flow probes around the abdominal aorta and the left main coronary artery. After 48 hours of recovery baseline measurements of arterial blood pressure, cardiac output (as Dopplar flow), and coronary blood flow (Dopplar) were obtained in conscious unrestrained animals. The rats were then treated with intraperotoneal injections of purified lipopolysaccharide 0.5 mg/kg. After 72 hours when the induction of iNOS had produced a fall in blood pressure, measurements were repeated. Each rat then received either 25 μmole/kg of the nitric oxide synthase inhibitor L-NAME or an infusion of 200 nmol/kg of S-methyl-L-cysteine for 10 minutes followed by a 500 nmol/kg bolus dose of S-methyl-L-cysteine. The measurements were then repeated a third time.

[2] = test system: hypotensive effects of infused S-nitrosocysteine; assay: inhibition of the hypotensive effects of infused S-nitrosocysteine; conditions: in vivo
[3] = rats 72 hours after lipopolysaccharide, L-NAME 25 μmole/kg
[4] = rats 72 hours after lipopolysaccharide

| Compound | number of treated rats that died [1] | mean arterial pressure after treatment [1] | coronary resistance after treatment [1, 3] | heart rate after treatment [1, 3] | total peripheral resistance after treatment [1, 3] | total peripheral resistance after treatment (in words) [1, 4] | coronary blood flow after treatment ([1]; rats 72 hours after lipopolysaccharide, L-NAME 25 μmole/kg, Doppler) | cardiac output after treatment ([1]; rats 72 hours after lipopolysaccharide, L-NAME 25 μmole/kg, Doppler flow) | mean arterial pressure after treatment ([1]; listed as S-methyl cysteine) | coronary blood flow after treatment (in words) ([1]; rats 72 hours after lipopolysaccharide, S-methyl-L-cysteine 200 nmol/kg infusion for 10 minutes + 500 nmol/kg bolus) | effect on the hypotensive effects of infused S-nitrosocysteine [2] |
| --- | --- | --- | --- | --- | --- | --- | --- | --- | --- | --- | --- |
| COC(=O)[C@@H](N)CCCNC(=N)N[N+](=O)[O-] [L-NAME, Nω-nitro-L-arginine methyl ester, reference compound] | 7 | returned mean arterial pressure to baseline values | about 160 % of baseline values | about 60 % of the pre-treatment values | about 160 % of baseline values | increased total peripheral resistance far above normal | about 60 % of the pre-treatment values | about 60 % of the pre-treatment values | – | – | – |
| CSC[C@H](N)C(=O)O [S-methyl-L-cysteine] | none died | attenuated the hypotension induced by lipopolysaccharide | – | – | – | returned to normal values | – | – | returned mean arterial pressure to baseline values | to pre-treatment values | inhibit the hypotensive effects of infused S-nitrosocysteine |
